Reference: ChEMBL document CHEMBL5247633, “Discovery of novel analogs of KHS101 as transforming acidic coiled coil containing protein 3 (TACC3) inhibitors for the treatment of glioblastoma” (Eur J Med Chem, 2022)
Values belong to the compound of their own block, whether it stands above or below them. The source made the active and inactive calls. The calls are words filed in the database; no cut-off is given here.

Columns and labels:
[1] = system: SK-OV-3; test: Antiproliferative activity against human SK-OV-3 cells assessed as cell growth inhibition measured after 72 hrs by MTT assay; format: functional, cell-based; settings: SK-OV-3, 72 h
[2] = Cytotoxicity against human U251 cells assessed as inhibition of cell growth measured after 72 hrs by MTT assay; format: toxicity, cell-based, U-251
[3] = system: MDA-MB-231; test: Antiproliferative activity against human MDA-MB-231 cells assessed as cell growth inhibition measured after 72 hrs by MTT assay; format: functional, cell-based; settings: MDA-MB-231, 72 h
[4] = Antiproliferative activity against human HLF1 cells assessed as cell growth inhibition measured after 72 hrs by MTT assay; format: functional, cell-based; settings: HLF1, 72 h
[5] = system: JIMT-1; test: Antiproliferative activity against human JIMT-1 cells assessed as cell growth inhibition measured after 72 hrs by MTT assay; format: functional, cell-based; settings: JIMT-1, 72 h
[6] = Antiproliferative activity against human U87 cells assessed as inhibition of cell growth incubated for 72 hrs by MTT assay; format: functional, cell-based, U-87MG ATCC; settings: U-87 MG
[7] = Inhibition of cell invasion in human U87 cells assessed as reduction in number of cells invaded at 1 uM incubated for 24 hrs by matrigel-coated transwell assay (reference value: 154.3%); format: functional, U-87MG ATCC
[8] = system: U-87MG ATCC; test: Induction of apoptosis in human U87 cells by AnnexinV/PI staining assay; format: functional, cell-based; settings: dose 1-4 µM
[9] = system: U-87MG ATCC; test: Induction of cell cycle arrest in human U87 cells assessed as increase in accumulation at G2/M phase at 2 uM after 24 hrs by propidium iodide staining based flow cytometric analysis; format: functional
[10] = system: U-87MG ATCC; test: Antitumor activity against human U87 cells xenografted in BALB/c mouse model assessed as decrease in Ki67 positive cells at 20 mg/kg, iv; format: functional, organism-based
[11] = Inhibition of cell invasion in human U87 cells assessed as reduction in number of cells invaded at 4 uM incubated for 24 hrs by matrigel-coated transwell assay (reference value: 154.3%); format: functional, U-87MG ATCC
[12] = Inhibition of cell invasion in human U87 cells assessed as reduction in number of cells invaded at 2 uM incubated for 24 hrs by matrigel-coated transwell assay (reference value: 154.3%); format: functional, U-87MG ATCC
[13] = Induction of cell cycle arrest in human U87 cells assessed as decrease in accumulation at G1 phase at 4 uM after 36 hrs by propidium iodide staining based flow cytometric analysis relative to control (reference value: 51.7 %); format: functional, U-87MG ATCC; set-up: scale not given: the % may be the effect or the level left
[14] = Stability in human plasma assessed as half life; format: ADME, cell-free
[15] = system: U-87MG ATCC; test: Inhibition of cell migration in human U87 cells assessed as reduction in cell migration incubated for 24 hrs by wound healing assay; format: functional, cell-based
[16] = Cytotoxicity against human U87 cells assessed as reduction in cell viability measured after 24 hrs by MTT assay; format: toxicity, cell-based, U-87MG ATCC
[17] = Stability in mouse plasma assessed as half life; format: ADME, cell-free
[18] = system: U-87MG ATCC; test: Antitumor activity against human U87 cells xenografted in BALB/c mouse model assessed as tumor growth regression at 20 mg/kg, iv measured on day 20; format: functional, organism-based
[19] = system: U-87MG ATCC; test: Antitumor activity against human U87 cells xenografted in BALB/c mouse model assessed as increase in apoptotic cells at 20 mg/kg, iv by TUNEL assay; format: functional, organism-based
[20] = system: U-87MG ATCC; test: Antiproliferative activity against shRNA mediated TACC3 knockdown human U87 cells assessed as reduction in cell viability; format: functional, cell-based
[21] = Induction of mitochondrial membrane potential loss in human U87 cells assessed as increase in green fluorescence intensity at 0 to 4 uM incubated for 36 hrs by JC-1 staining based flow cytometry relative to control (reference value: 9.34 %); format: functional, U-87MG ATCC; settings: dose 0-4 µM
[22] = system: U-87MG ATCC; test: Induction of apoptosis in human U87 cells assessed as increase in number of apoptotic cells by Hoechst 33258 staining method; format: functional, cell-based
[23] = Induction of cell cycle arrest in human U87 cells assessed as increase in accumulation at G2/M phase at 4 uM after 36 hrs by propidium iodide staining based flow cytometric analysis relative to control (reference value: 15.3 %); format: functional, U-87MG ATCC
[24] = molecular target: Transforming acidic coiled-coil-containing protein 3 (Homo sapiens) (UniProt Q9Y6A5); test: Inhibition of TACC3 in human U87 cells assessed as stabilization of protein by measuring shift in thermal melting curve at 10 uM in presence of pronase incubated for 6 hrs by cellular thermal shift assay; format: cell-based
[25] = Induction of ROS generation in human U87 cells at 4 uM incubated for 36 hrs by DCF-DA based flow cytometry analysis relative to control (Rvb= 4.01 %); format: functional, U-87MG ATCC
[26] = molecular target: Transforming acidic coiled-coil-containing protein 3 (Homo sapiens) (UniProt Q9Y6A5); test: Inhibition of TACC3 in human U87 cells assessed as stabilization of protein by measuring shift in thermal melting curve at 10 uM incubated for 6 hrs by cellular thermal shift assay; format: cell-based
[27] = Induction of cell cycle arrest in shRNA induced in human U87 cells assessed as accumulation at G2/M phase at 1 to 4 uM by propidium iodide staining based flow cytometric analysis relative to control (reference value: 14.95 %); format: functional, U-87MG ATCC; settings: dose 1-4 µM
[28] = system: U-87MG ATCC; test: Induction of ROS generation in human U87 cells at incubated for 36 hrs by DCF-DA based flow cytometry analysis; format: functional, cell-based; settings: dose 1-4 µM
[29] = Toxicity in BALB/c mouse transplanted with human U87 cells assessed as effect in body weight at 20 mg/kg, iv; format: organism-based, U-87MG ATCC; settings: in vivo
[30] = Induction of apoptosis in human U87 cells assessed as early apoptosis at 4 uM incubated for 36 hrs by AnnexinV/propidium iodide staining based flow cytometry method relative to control (reference value: 4.49 %); format: functional, U-87MG ATCC
[31] = Antitumor activity against human U87 cells xenografted in BALB/c mouse model assessed as reduction in tumor weight at 20 mg/kg, iv measured on day 20; format: functional, U-87MG ATCC; set-up: scale not given: the % may be the effect or the level left
[32] = Induction of apoptosis in human U87 cells assessed as late apoptosis at 4 uM incubated for 36 hrs by AnnexinV/propidium iodide staining based flow cytometry method relative to control (reference value: 0.52 %); format: functional, U-87MG ATCC

Structure (SMILES): CCCCN(CCCC)c1ccnc(NCc2csc(-c3ccccc3)n2)n1
IC50 [1]: 21.3 µM
IC50 at 72 h [2]: 14.2 µM
IC50 [3]: 21.7 µM
IC50 [4]: 35.4 µM
IC50 [5]: 13.2 µM
IC50 [6]: 14.8 µM

Structure (SMILES): c1ccc(-c2nc(CNc3ncccn3)cs2)cc1
IC50 at 72 h [2]: > 100 µM
IC50 [6]: > 100 µM

Structure (SMILES): CC(C)CNc1ccnc(NCc2csc(-c3ccc(C(F)(F)F)cc3)n2)n1
IC50 [1]: 39 µM
IC50 at 72 h [2]: 29.8 µM
IC50 [3]: 33 µM
IC50 [4]: 65.3 µM
IC50 [5]: 38 µM
IC50 [6]: 20.1 µM

Structure (SMILES): CC(C)CNc1ccnc(NCc2csc(-c3ccccc3)c2)n1
IC50 [1]: 26.2 µM
IC50 at 72 h [2]: 25.8 µM
IC50 [3]: 27.4 µM
IC50 [4]: 61.2 µM
IC50 [5]: 42.2 µM
IC50 [6]: 30.7 µM

Structure (SMILES): COc1cccc2c1C(=O)c1c(O)c3c(c(O)c1C2=O)C[C@@](O)(C(=O)CO)C[C@@H]3O[C@H]1C[C@H](N)[C@H](O)[C@H](C)O1 [DOXORUBICIN]
IC50 [1]: 0.19 µM
IC50 at 72 h [2]: 0.45 µM
IC50 [3]: 0.32 µM
IC50 [4]: 0.23 µM
IC50 [5]: 0.37 µM
IC50 [6]: 0.25 µM

Structure (SMILES): CC(C)CNc1ccnc(NC(=O)c2csc(-c3ccccc3)n2)n1
IC50 [1]: 83.5 µM
IC50 at 72 h [2]: 92.1 µM
IC50 [3]: > 100 µM
IC50 [5]: > 100 µM
IC50 [6]: 59.1 µM

Structure (SMILES): CC(C)CNc1ccnc(NCc2csc(-c3ccc(Cl)cc3)n2)n1
IC50 [1]: 34.1 µM
IC50 at 72 h [2]: 18.5 µM
IC50 [3]: 18.3 µM
IC50 [4]: 56.3 µM
IC50 [5]: 26.9 µM
IC50 [6]: 16.6 µM

Structure (SMILES): CC(C)CNc1cccc(NCc2csc(-c3ccccc3)n2)c1
IC50 at 72 h [2]: > 100 µM
IC50 [6]: > 100 µM

Structure (SMILES): CCCN(CCC)c1ccnc(NCc2csc(-c3ccccc3)n2)n1
IC50 [1]: 22.2 µM
IC50 at 72 h [2]: 16.2 µM
IC50 [3]: 23.2 µM
IC50 [4]: 46.9 µM
IC50 [5]: 16.9 µM
IC50 [6]: 16.4 µM

Structure (SMILES): CC(C)CNc1ccnc(NCc2csc(-c3ccccc3)n2)n1
IC50 [1]: 21.4 µM
IC50 at 72 h [2]: 49.1 µM
IC50 [3]: 31.1 µM
IC50 [4]: 89.4 µM
IC50 [5]: 33 µM
IC50 [6]: 37.9 µM

Further lines, with some results ahead:

IC50 [1]: 20.2 µM
IC50 [3]: 18.3 µM
Structure (SMILES): c1ccc(-c2nc(CNc3nccc(N4CCCC4)n3)cs2)cc1
IC50 at 72 h [2]: 17.4 µM
IC50 [4]: 61.8 µM
IC50 [5]: 29.6 µM
IC50 [6]: 26.2 µM

IC50 [1]: 21.4 µM
IC50 [3]: 14.6 µM
Structure (SMILES): c1ccc(-c2nc(CNc3nccc(N4CCCCC4)n3)cs2)cc1
IC50 at 72 h [2]: 12.3 µM
IC50 [4]: 48.3 µM
IC50 [5]: 21.9 µM
IC50 [6]: 8.39 µM

IC50 [1]: 12.5 µM
IC50 [3]: 18.4 µM
Structure (SMILES): c1ccc(-c2nc(CNc3nccc(NC4CCCCC4)n3)cs2)cc1
IC50 at 72 h [2]: 10.8 µM
IC50 [4]: 28.2 µM
IC50 [5]: 19.4 µM
IC50 [6]: 11.6 µM

IC50 [1]: 52.5 µM
IC50 [3]: > 100 µM
Structure (SMILES): c1ccc(-c2nc(CNc3nccc(NC4CC4)n3)cs2)cc1
IC50 at 72 h [2]: 59.5 µM
IC50 [4]: > 100 µM
IC50 [5]: 68.8 µM
IC50 [6]: 72.3 µM

IC50 [1]: 8.21 µM
IC50 [3]: 6.46 µM
half-life [14]: 4.2 h
half-life [17]: 2.1 h
inhibition [24]: Active
inhibition [26]: Active
Structure (SMILES): OC1CC2CC1CN2c1ccnc(NCc2csc(-c3ccccc3)n2)n1 (stereo not drawn)
Activity [7]: 119.7
IC50 at 72 h [2]: 5.61 µM
Activity [8]: Dose-Dependent Effect
Activity [9]: Active
Activity [10]: Active
Activity [11]: 42.3
Activity [12]: 73
Activity [13]: 74.6%
inhibition [15]: Active
IC50 at 24 h [16]: 27.5 µM
Activity [18]: Active
Activity [19]: Active
Activity [20]: Active
Activity [21]: 48.58%
Activity [22]: Active
Activity [23]: 41.2%
Activity [25]: 54.28%
Activity [27]: 21.31%
Activity [28]: Dose-Dependent Effect
Activity [29]: Non-Toxic
Activity [30]: 21.42%
IC50 [4]: 23.1 µM
Activity [31]: 72.7%
Activity [32]: 26.72%
IC50 [5]: 4.84 µM
IC50 [6]: 3.29 µM

IC50 [1]: 33.3 µM
IC50 [3]: 27.7 µM
Structure (SMILES): c1ccc(-c2nc(CNc3nccc(N4CCC4)n3)cs2)cc1
IC50 at 72 h [2]: 29.2 µM
IC50 [4]: 91.1 µM
IC50 [5]: 25.7 µM
IC50 [6]: 21.5 µM
